According to the supplement of paper PMC11208160:

Experiment: recombinant barcode read abundance after kanamycin selection (control-corrected) (log10(CPM+1)); higher = more efficient recombination; sequences stand for … in AGTGCAGAGAAAATCGGCCAGTTTTCTCTGCCTGCAGTCCGCATGCCGT…AGATTTATGCAGCGGACTGCCTTTCTCCCAAAGTGATAAACCGGACAGTATCATGGACCGGTTTTCCCGGTAATCCGTATTTGCAAGGTTGGTTTCACT; site = the 11-nt target
Procedure, shortened: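 A vector carrying a T7-inducible recombinase and the last 73 bp of the bridge RNA received, by Gibson cloning, oligos encoding a promoter, target, barcode and the first 104 bridge RNA bases under J23119. The pooled constructs entered E. coli together with a donor plasmid by electroporation. Selection used chloramphenicol/ampicillin/kanamycin with 0.1 mM IPTG, with chloramphenicol/ampicillin LB agar as the control, each in two replicates. Recombination efficiency is the averaged, control-corrected counts-per-million of barcodes at recombinant junctions, reported as log10(CPM+1).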
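Further: IS621 recombinase and bridge RNA in Escherichia coli cells.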

Sequence	recombinant barcode read abundance (log10)
CGCTGACCTTGGGTTCTAACCTGTTGCTT (site CGCTGCCCTAA)	0.208
AAGTCCACTTGGGTTCTAACCTGTTGCCT (site AAGTCCACTAG)	0.934
GTACTCTCTTGGGTTCTAACCTGTTGCCA (site GTACTCTCTTG)	1.38
GGGGACCCTTGGGTTCTAACCTGTTGCGC (site GGGGACCCTTC)	0.283
GAGAAGTCTTGGGTTCTAACCTGTTGCCT (site GAGTAGTCTAG)	0.404
CGGAGCCCTTGGGTTCTAACCTGTTGCAG (site CGGAGCCCTCT)	2.06
CTATTTGCTTGGGTTCTAACCTGTTGCAA (site CTACTTGCTTT)	0.103
CGAACATCTTGGGTTCTAACCTGTTGCTT (site ACCTACCCTCC)	0
CAGAGGCCTTGGGTTCTAACCTGTTGCCT (site CAGCGGCCTAG)	0.376
TGTGCGACTTGGGTTCTAACCTGTTGCAC (site TGTGCGACTGT)	0.0665
GACCACCCTTGGGTTCTAACCTGTTGCGG (site ATCCACCCTCC)	1.14
AGTTCGTCTTGGGTTCTAACCTGTTGCCG (site AGCTCGTCTCC)	0.29
GAGAGCACTTGGGTTCTAACCTGTTGCCA (site GAGGGCACTTG)	0.329
CAGCCTTCTTGGGTTCTAACCTGTTGCTT (site CATCCTCCTAA)	0.0417
CACACACCTTGGGTTCTAACCTGTTGCGT (site CACACACCTAC)	2.86
AATGCTTCTTGGGTTCTAACCTGTTGCCT (site AATTGTTCTAG)	0.167
GTCCAGGCTTGGGTTCTAACCTGTTGCGG (site GACCAGTCTCC)	0.421
AGGAACCCTTGGGTTCTAACCTGTTGCTT (site AGGAACCCTTA)	0.256
AGTAAGCCTTGGGTTCTAACCTGTTGCCA (site AGTAAGGCTAG)	0.113
TGACATTCTTGGGTTCTAACCTGTTGCTT (site GGACATTCTAA)	0.139
GACGGATCTTGGGTTCTAACCTGTTGCAT (site GACGGATCTAG)	0.233
AAATTGACTTGGGTTCTAACCTGTTGCCT (site AACTTGACTAG)	0.136

Sequence	recombinant barcode read abundance (log10)
CACGATGCTTGGGTTCTAACCTGTTGCCT (site CAAGATGCTAG)	0.437
TTGGTCACTTGGGTTCTAACCTGTTGCCT (site TTGGACACTAG)	0.358
GGTACTTCTTGGGTTCTAACCTGTTGCTT (site GGTACTTCTAA)	0.152
AACTGATCTTGGGTTCTAACCTGTTGCCT (site AACTGATCTAG)	0.397
CGAACTACTTGGGTTCTAACCTGTTGCGT (site CGAACTACTAT)	0.0569
TCGAACTCTTGGGTTCTAACCTGTTGCTT (site TCGAACTCTAA)	0.339
GTATCAGCTTGGGTTCTAACCTGTTGCCT (site GTATCATCTAG)	0.0176
CATGATTCTTGGGTTCTAACCTGTTGCCT (site CATGATTCTAG)	1.05
GTTACGGCTTGGGTTCTAACCTGTTGCCT (site GTTGCGGCTAG)	0.0497
ACCAGGTCTTGGGTTCTAACCTGTTGCCT (site ATCAGGTCTAG)	0.09
TAGGCGACTTGGGTTCTAACCTGTTGCCA (site TAGGCGACTTG)	0.186
CAGAAGCCTTGGGTTCTAACCTGTTGCCT (site GAGAAGCCTAG)	0.193
CTAAGATCTTGGGTTCTAACCTGTTGCCT (site CTAAGATCTAG)	0.169
GTATATACTTGGGTTCTAACCTGTTGCCT (site GTGTATACTAG)	0.241
TATTCTCCTTGGGTTCTAACCTGTTGCGT (site TATTCTCCTAA)	0.0153
CGACCTGCTTGGGTTCTAACCTGTTGCCT (site CGACCTGCTAG)	0.246
ATGGGCCCTTGGGTTCTAACCTGTTGCTC (site ATGGGCCCTCA)	1.04
TACCCTACTTGGGTTCTAACCTGTTGCTA (site TACCCGCCTTA)	0.146
AAATTGACTTGGGTTCTAACCTGTTGCCT (site AAATTGACTAG)	0.624
GGACGACCTTGGGTTCTAACCTGTTGCCT (site GGACGACCTAG)	2.26
GACACGCCTTGGGTTCTAACCTGTTGCAT (site GACACGCCTAC)	0.326
